Columns and labels:
[1] = target: Serine/threonine-protein kinase PAK 4 (Homo sapiens) (UniProt O96013); conditions: Compound concentration 1000.0 nM
[2] = target: MAP/microtubule affinity-regulating kinase 3 (Homo sapiens) (UniProt P27448); conditions: Compound concentration 1000.0 nM
[3] = target: Insulin receptor (Homo sapiens) (UniProt P06213); conditions: Compound concentration 1000.0 nM
[4] = target: Serine/threonine-protein kinase pim-2 (Homo sapiens) (UniProt Q9P1W9); conditions: Compound concentration 1000.0 nM
[5] = target: Interleukin-1 receptor-associated kinase 3 (Homo sapiens) (UniProt Q9Y616); conditions: Compound concentration 1000.0 nM
[6] = target: Serine/threonine-protein kinase 38-like (Homo sapiens) (UniProt Q9Y2H1); conditions: Compound concentration 1000.0 nM
[7] = target: Proto-oncogene tyrosine-protein kinase receptor Ret (Homo sapiens) (UniProt P07949); conditions: Compound concentration 1000.0 nM
[8] = tested on: Phosphatidylinositol 4,5-bisphosphate 3-kinase catalytic subunit alpha isoform (Homo sapiens), P42336 [C420R]; conditions: Compound concentration 1000.0 nM
[9] = target: Tyrosine-protein kinase Fgr (Homo sapiens) (UniProt P09769); conditions: Compound concentration 1000.0 nM
[10] = target: Homeodomain-interacting protein kinase 2 (Homo sapiens) (UniProt Q9H2X6); conditions: Compound concentration 1000.0 nM
[11] = target: Myosin light chain kinase 2, skeletal/cardiac muscle (Homo sapiens) (UniProt Q9H1R3); conditions: Compound concentration 1000.0 nM
[12] = target: Tyrosine-protein kinase FRK (Homo sapiens) (UniProt P42685); conditions: Compound concentration 1000.0 nM
[13] = target: Serine/threonine-protein kinase SIK2 (Homo sapiens) (UniProt Q9H0K1); conditions: Compound concentration 1000.0 nM
[14] = target: Ribosomal protein S6 kinase alpha-5 (Homo sapiens) (UniProt O75582); conditions: Compound concentration 1000.0 nM
[15] = target: Serine/threonine-protein kinase TBK1 (Homo sapiens) (UniProt Q9UHD2); conditions: Compound concentration 1000.0 nM
[16] = target: cAMP-dependent protein kinase catalytic subunit beta (Homo sapiens) (UniProt P22694); conditions: Compound concentration 1000.0 nM
[17] = target: Bone morphogenetic protein receptor type-1B (Homo sapiens) (UniProt O00238); conditions: Compound concentration 1000.0 nM
[18] = target: 5-hydroxytryptamine receptor 7 (Homo sapiens) (UniProt P34969); conditions: Compound concentration 10.0 uM
[19] = target: Cyclin-dependent kinase 19 (Homo sapiens) (UniProt Q9BWU1); conditions: Compound concentration 1000.0 nM
[20] = target: Myosin light chain kinase family member 4 (Homo sapiens) (UniProt Q86YV6); conditions: Compound concentration 1000.0 nM
[21] = target: Serine/threonine-protein kinase 35 (Homo sapiens) (UniProt Q8TDR2); conditions: Compound concentration 1000.0 nM
[22] = target: Cyclin-dependent kinase 8 (Homo sapiens) (UniProt P49336); conditions: Compound concentration 1000.0 nM
[23] = target: Mitogen-activated protein kinase 7 (Homo sapiens) (UniProt Q13164); conditions: Compound concentration 1000.0 nM
[24] = target: Serine/threonine-protein kinase MRCK gamma (Homo sapiens) (UniProt Q6DT37); conditions: Compound concentration 1000.0 nM
[25] = target: Alpha-1D adrenergic receptor (Homo sapiens) (UniProt P25100); conditions: Compound concentration 10.0 uM
[26] = target: Serine/threonine-protein kinase DCLK2 (Homo sapiens) (UniProt Q8N568); conditions: Compound concentration 1000.0 nM
[27] = target: Serine/threonine-protein kinase 3 (Homo sapiens) (UniProt Q13188); conditions: Compound concentration 1000.0 nM
[28] = target: Phosphatidylinositol 4-phosphate 5-kinase type-1 alpha (Homo sapiens) (UniProt Q99755); conditions: Compound concentration 1000.0 nM
[29] = target: Tyrosine-protein kinase Mer (Homo sapiens) (UniProt Q12866); conditions: Compound concentration 1000.0 nM
[30] = tested on: Tyrosine-protein kinase ABL1 (Homo sapiens), P00519 [F317L]; conditions: Compound concentration 1000.0 nM
[31] = target: Ribosomal protein S6 kinase alpha-6 (Homo sapiens) (UniProt Q9UK32); conditions: Compound concentration 1000.0 nM
[32] = target: Inhibitor of nuclear factor kappa-B kinase subunit beta (Homo sapiens) (UniProt O14920); conditions: Compound concentration 1000.0 nM
[33] = target: Non-receptor tyrosine-protein kinase TNK1 (Homo sapiens) (UniProt Q13470); conditions: Compound concentration 1000.0 nM
[34] = target: Mitogen-activated protein kinase 12 (Homo sapiens) (UniProt P53778); conditions: Compound concentration 1000.0 nM
[35] = target: Ribosomal protein S6 kinase alpha-3 (Homo sapiens) (UniProt P51812); conditions: Compound concentration 1000.0 nM
[36] = target: Histamine H4 receptor (Homo sapiens) (UniProt Q9H3N8); conditions: Compound concentration 10.0 uM
[37] = target: Cyclin-dependent kinase 11A (Homo sapiens) (UniProt Q9UQ88); conditions: Compound concentration 1000.0 nM
[38] = target: Homeodomain-interacting protein kinase 1 (Homo sapiens) (UniProt Q86Z02); conditions: Compound concentration 1000.0 nM
[39] = target: Mitogen-activated protein kinase kinase kinase kinase 1 (Homo sapiens) (UniProt Q92918); conditions: Compound concentration 1000.0 nM
[40] = target: Delta-type opioid receptor (Homo sapiens) (UniProt P41143); conditions: Compound concentration 10.0 uM
[41] = target: Calcium/calmodulin-dependent protein kinase type 1G (Homo sapiens) (UniProt Q96NX5); conditions: Compound concentration 1000.0 nM
[42] = target: Serine/threonine-protein kinase 36 (Homo sapiens) (UniProt Q9NRP7); conditions: Compound concentration 1000.0 nM
[43] = target: MAP kinase-interacting serine/threonine-protein kinase 1 (Homo sapiens) (UniProt Q9BUB5); conditions: Compound concentration 1000.0 nM
[44] = target: Ribosomal protein S6 kinase alpha-5 (Homo sapiens) (UniProt O75582); conditions: Compound concentration 1000.0 nM; remark: listed apart in the source
[45] = tested on: Proto-oncogene tyrosine-protein kinase receptor Ret (Homo sapiens), P07949 [M918T]; conditions: Compound concentration 1000.0 nM

Chain of Ribosomal protein S6 kinase alpha-5 (Homo sapiens) (O75582 whole entry, looked up): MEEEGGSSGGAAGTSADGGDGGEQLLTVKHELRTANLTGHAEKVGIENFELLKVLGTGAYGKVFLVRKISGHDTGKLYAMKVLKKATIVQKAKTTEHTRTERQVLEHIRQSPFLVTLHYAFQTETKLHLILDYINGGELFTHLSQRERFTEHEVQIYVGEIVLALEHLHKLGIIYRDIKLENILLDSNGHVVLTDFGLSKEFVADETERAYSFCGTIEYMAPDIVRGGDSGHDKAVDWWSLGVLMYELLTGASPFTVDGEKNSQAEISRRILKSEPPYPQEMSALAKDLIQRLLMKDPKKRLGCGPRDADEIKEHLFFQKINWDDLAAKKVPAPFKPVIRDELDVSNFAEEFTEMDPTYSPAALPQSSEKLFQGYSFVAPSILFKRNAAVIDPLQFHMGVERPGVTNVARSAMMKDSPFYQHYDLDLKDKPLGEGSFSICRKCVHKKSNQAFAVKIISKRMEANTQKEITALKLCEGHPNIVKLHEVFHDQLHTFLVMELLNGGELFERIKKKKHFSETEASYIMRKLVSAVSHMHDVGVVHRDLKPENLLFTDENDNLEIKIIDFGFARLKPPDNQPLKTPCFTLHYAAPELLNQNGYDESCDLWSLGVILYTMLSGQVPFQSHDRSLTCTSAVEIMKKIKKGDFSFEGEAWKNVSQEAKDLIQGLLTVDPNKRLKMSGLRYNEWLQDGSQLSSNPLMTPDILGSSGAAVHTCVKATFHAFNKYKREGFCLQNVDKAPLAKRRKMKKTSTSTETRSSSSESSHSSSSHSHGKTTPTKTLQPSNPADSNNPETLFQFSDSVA
Chain of Serine/threonine-protein kinase DCLK2 (Homo sapiens) (Q8N568 whole entry): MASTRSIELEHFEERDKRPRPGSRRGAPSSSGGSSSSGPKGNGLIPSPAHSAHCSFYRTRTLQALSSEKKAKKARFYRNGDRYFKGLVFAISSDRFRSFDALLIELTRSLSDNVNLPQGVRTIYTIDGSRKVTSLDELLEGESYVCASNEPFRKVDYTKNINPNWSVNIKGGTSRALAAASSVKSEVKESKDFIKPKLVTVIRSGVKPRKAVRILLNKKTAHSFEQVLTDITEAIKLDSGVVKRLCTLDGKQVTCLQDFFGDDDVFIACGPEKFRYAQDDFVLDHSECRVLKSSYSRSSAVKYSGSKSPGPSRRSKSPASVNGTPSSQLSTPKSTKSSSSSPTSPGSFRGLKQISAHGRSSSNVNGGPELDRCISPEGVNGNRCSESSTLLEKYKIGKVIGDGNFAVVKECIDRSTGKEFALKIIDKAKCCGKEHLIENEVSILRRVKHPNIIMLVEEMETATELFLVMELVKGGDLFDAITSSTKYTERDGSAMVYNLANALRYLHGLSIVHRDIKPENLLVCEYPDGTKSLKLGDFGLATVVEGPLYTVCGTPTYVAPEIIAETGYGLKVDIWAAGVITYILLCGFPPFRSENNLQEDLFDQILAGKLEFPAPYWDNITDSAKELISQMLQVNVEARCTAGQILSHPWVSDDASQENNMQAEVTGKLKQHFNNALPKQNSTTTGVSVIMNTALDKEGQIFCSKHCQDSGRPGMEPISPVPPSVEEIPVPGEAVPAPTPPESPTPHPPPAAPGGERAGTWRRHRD
Chain of Cyclin-dependent kinase 11A (Homo sapiens) (Q9UQ88 whole entry): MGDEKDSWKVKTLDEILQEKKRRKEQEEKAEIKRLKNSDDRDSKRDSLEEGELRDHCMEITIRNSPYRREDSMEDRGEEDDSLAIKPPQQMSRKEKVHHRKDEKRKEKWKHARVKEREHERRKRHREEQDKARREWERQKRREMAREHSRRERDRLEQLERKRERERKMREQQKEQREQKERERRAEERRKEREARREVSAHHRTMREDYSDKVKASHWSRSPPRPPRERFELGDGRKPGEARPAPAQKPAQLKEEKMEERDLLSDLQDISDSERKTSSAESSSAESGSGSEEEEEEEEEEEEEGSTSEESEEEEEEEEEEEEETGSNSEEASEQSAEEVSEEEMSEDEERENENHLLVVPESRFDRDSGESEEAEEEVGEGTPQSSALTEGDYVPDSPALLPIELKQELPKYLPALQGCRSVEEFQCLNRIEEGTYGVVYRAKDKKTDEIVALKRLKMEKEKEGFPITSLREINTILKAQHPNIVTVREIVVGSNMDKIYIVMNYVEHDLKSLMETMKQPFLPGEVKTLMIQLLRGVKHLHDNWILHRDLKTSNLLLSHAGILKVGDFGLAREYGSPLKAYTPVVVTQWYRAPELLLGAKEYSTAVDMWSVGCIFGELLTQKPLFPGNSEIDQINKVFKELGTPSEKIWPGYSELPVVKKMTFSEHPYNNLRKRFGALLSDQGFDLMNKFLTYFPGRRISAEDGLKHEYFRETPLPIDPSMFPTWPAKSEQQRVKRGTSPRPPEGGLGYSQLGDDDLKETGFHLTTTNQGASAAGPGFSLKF
Chain of Phosphatidylinositol 4,5-bisphosphate 3-kinase catalytic subunit alpha isoform (Homo sapiens), P42336 [C420R] (P42336 whole entry C420R, canonical isoform): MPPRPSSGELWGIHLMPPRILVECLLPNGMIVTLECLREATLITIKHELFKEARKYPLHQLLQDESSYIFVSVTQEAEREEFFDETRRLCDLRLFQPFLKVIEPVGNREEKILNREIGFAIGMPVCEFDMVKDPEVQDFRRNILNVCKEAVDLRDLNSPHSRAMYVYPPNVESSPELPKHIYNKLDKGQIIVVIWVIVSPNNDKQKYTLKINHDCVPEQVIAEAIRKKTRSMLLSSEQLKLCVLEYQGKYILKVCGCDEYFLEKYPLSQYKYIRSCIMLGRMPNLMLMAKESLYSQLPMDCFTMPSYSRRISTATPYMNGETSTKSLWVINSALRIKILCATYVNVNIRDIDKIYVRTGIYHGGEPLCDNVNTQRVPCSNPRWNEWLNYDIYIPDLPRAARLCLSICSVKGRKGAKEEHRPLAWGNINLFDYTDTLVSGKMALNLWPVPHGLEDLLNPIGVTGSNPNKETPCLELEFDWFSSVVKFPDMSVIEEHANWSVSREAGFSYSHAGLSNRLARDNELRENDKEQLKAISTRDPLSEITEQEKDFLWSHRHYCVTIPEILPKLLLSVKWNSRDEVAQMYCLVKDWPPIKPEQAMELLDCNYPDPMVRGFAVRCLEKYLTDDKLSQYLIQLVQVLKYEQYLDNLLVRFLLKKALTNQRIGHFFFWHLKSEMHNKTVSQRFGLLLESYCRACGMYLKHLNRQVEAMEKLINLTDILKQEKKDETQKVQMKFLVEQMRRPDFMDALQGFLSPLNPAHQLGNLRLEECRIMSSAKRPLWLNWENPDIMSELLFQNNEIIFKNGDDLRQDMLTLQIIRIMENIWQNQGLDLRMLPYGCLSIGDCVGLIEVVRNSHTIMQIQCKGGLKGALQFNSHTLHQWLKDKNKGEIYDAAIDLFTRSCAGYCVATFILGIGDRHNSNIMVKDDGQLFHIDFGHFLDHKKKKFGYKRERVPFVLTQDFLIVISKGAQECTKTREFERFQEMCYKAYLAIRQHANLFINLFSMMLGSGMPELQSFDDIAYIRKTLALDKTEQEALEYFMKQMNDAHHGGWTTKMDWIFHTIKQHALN
Chain of Cyclin-dependent kinase 8 (Homo sapiens) (P49336 whole entry): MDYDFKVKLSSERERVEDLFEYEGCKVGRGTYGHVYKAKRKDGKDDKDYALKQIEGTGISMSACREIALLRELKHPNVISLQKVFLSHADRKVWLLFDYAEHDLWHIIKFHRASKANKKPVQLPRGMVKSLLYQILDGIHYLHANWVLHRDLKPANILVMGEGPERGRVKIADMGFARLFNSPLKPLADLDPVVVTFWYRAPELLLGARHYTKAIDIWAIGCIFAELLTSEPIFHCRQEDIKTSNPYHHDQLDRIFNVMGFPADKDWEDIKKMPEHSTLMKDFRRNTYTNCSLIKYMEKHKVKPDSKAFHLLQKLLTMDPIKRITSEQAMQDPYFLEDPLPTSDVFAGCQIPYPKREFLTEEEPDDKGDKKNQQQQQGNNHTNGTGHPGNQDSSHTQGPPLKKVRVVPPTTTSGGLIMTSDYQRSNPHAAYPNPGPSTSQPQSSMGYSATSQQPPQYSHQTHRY
Chain of Histamine H4 receptor (Homo sapiens) (Q9H3N8 whole entry): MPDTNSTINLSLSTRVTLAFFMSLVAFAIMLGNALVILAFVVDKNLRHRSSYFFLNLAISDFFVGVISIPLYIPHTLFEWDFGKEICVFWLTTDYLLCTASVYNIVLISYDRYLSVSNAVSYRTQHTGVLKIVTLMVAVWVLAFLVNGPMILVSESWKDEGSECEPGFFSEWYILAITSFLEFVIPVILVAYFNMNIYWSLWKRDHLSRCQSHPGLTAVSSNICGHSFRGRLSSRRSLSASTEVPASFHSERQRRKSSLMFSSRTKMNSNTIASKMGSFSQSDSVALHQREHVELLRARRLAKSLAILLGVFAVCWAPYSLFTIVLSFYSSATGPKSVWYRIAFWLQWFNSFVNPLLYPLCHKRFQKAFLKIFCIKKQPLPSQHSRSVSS
Chain of Bone morphogenetic protein receptor type-1B (Homo sapiens) (O00238 whole entry): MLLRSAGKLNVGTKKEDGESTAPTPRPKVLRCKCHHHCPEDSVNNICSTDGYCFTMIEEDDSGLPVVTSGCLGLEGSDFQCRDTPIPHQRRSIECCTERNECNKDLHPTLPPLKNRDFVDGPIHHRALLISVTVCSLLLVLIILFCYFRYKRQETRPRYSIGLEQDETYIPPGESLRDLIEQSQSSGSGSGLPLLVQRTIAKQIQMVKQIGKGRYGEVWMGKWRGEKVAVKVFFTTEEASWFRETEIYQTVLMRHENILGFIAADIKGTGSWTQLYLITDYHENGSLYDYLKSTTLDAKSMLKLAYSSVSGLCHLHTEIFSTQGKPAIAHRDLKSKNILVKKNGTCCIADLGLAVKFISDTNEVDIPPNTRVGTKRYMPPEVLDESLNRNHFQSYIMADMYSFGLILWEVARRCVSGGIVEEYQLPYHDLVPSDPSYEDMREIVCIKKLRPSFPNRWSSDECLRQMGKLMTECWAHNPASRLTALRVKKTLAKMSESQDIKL

CCC(=N\O)/C(C)=C/c1ccc(F)cc1 [A-079]
inactive: residual activity [1] 100% | residual activity [2] 86% | residual activity [3] 100% | residual activity [4] 83% | residual activity [5] 100% | residual activity [6] 95% | residual activity [7] 100% | residual activity [8] 79% | residual activity [9] 67% | residual activity [10] 100% | residual activity [11] 81% | residual activity [12] 100% | residual activity [13] 100% | residual activity [14] 100% | residual activity [15] 75% | residual activity [16] 89% | residual activity [17] 87% | inhibition [18] 8.18% | residual activity [19] 79% | residual activity [20] 94% | residual activity [21] 100% | residual activity [22] 100% | residual activity [23] 88% | residual activity [24] 73% | inhibition [25] -4.38% | residual activity [26] 96% | residual activity [27] 100% | residual activity [28] 97% | residual activity [29] 100% | residual activity [30] 81% | residual activity [31] 81% | residual activity [32] 83% | residual activity [33] 66% | residual activity [34] 100% | residual activity [35] 100% | inhibition [36] 9.43% | residual activity [37] 94% | residual activity [38] 80% | residual activity [39] 92% | inhibition [40] -7.17% | residual activity [41] 97% | residual activity [42] 84% | residual activity [43] 56% | residual activity [44] 100% | residual activity [45] 100%

CCC(=N\O)/C(C)=C/c1ccc(F)c(C)c1 [A-226]
inactive: residual activity [1] 76% | residual activity [2] 100% | residual activity [3] 100% | residual activity [4] 100% | residual activity [5] 94% | residual activity [6] 81% | residual activity [7] 100% | residual activity [8] 100% | residual activity [9] 86% | residual activity [10] 100% | residual activity [11] 78% | residual activity [12] 80% | residual activity [13] 100% | residual activity [14] 78% | residual activity [15] 93% | residual activity [16] 100% | residual activity [17] 80% | inhibition [18] -0.42% | residual activity [19] 100% | residual activity [20] 99% | residual activity [21] 100% | residual activity [22] 73% | residual activity [23] 100% | residual activity [24] 85% | inhibition [25] -3.74% | residual activity [26] 83% | residual activity [27] 100% | residual activity [28] 100% | residual activity [29] 100% | residual activity [30] 100% | residual activity [31] 100% | residual activity [32] 100% | residual activity [33] 100% | residual activity [34] 88% | residual activity [35] 100% | inhibition [36] 10.8% | residual activity [37] 69% | residual activity [38] 97% | residual activity [39] 100% | inhibition [40] 2.53% | residual activity [41] 100% | residual activity [42] 100% | residual activity [43] 100% | residual activity [44] 89% | residual activity [45] 92%

Source: ChEMBL document CHEMBL4507256 (2021)
